Values quoted from earlier work as cited in patent US7098029B1, “Product and method for control of obesity” (Metabolic Pharmaceuticals Limited, priority 1999, dated 2006).

System: C57B1/6J (Ob/Ob) mouse
Details: administration by injection; cited from earlier work

hGH 177–191: synthetic peptide corresponding to amino acid residues 177–191 of the human growth hormone sequence (LRIVQCRSVEGSCGF)
adipose tissue mass: reduce body weight gain and adipose tissue mass
body weight gain: reduce body weight gain
